Data on one compound can be found in EP0624163B1, “CYCLIC CALCITONIN DERIVATIVES AND METHOD FOR THEIR PRODUCTION” (Smithkline Beecham Farmaceutici S.p.A., priority 1992, dated 1998).

For the assay, the system named is Male Sprague Dawley rats. As to the kind of experiment: Hypocalcaemic activity in rats (total serum calcium after i.v. injection). The class given is in vivo, rat. Particulars: fasted rats, blood sampled one hour after dosing, VEHICLE 10.49 + 0.6. As for the experimental part:
The hypocalcaemic activity of compounds (I) can be determined as reported for example in J. Endocrinology, 33, 469 (1965).
Male Sprague Dawley rats, about 4 weeks old, were kept under fasting conditions for 24 hours. The compounds were dissolved with BSA buffer (0.1% bovine serum albumin on 0.1M acetate buffer pH 4.5) and injected by the i.v. route into the lateral tail vein at doses of 3-10-30-100 ng/Kg. One hour after the dosing blood was sampled from the tail or neck vessels, then the serum samples obtained.
The serum was diluted with 0.1% lanthanium chloride solution and the concentration of total calcium was determined by Atomic Absorption Spectrophotometry.

On to `CC(C)C[C@H](NC(=O)[C@H](CCCCN)NC(=O)CNC(=O)[C@H](CC(C)C)NC(=O)[C@@H](NC(=O)[C@@H]1CC#CCCC(=O)N[C@@H](CO)C(=O)N[C@@H](CC(N)=O)C(=O)N[C@@H](CC(C)C)C(=O)N[C@@H](CO)C(=O)N[C@@H]([C@@H](C)O)C(=O)N1)C(C)C)C(=O)N[C@@H](CO)C(=O)N[C@@H](CCC(N)=O)C(=O)N[C@@H](CCC(=O)O)C(=O)N[C@@H](CC(C)C)C(=O)N[C@@H](Cc1c[nH]cn1)C(=O)N[C@@H](CCCCN)C(=O)N[C@@H](CC(C)C)C(=O)N[C@@H](CCC(N)=O)C(=O)N[C@H](C(=O)N[C@@H](Cc1ccc(O)cc1)C(=O)N1CCC[C@H]1C(=O)N[C@@H](CCCNC(=N)N)C(=O)N[C@H](C(=O)N[C@@H](C)C(=O)N[C@H](C(=O)NCC(=O)N[C@@H](C)C(=O)NCC(=O)N[C@H](C(=O)N1CCC[C@H]1C(N)=O)[C@@H](C)O)C(C)C)[C@@H](C)O)[C@@H](C)O` [Example 4], for which the “Total serum calcium; mean + S.D.” value is 10.09±0.1 mg/100 ml (Dose 3 ng/kg i.v. (lateral tail vein)), 8.85±0.25 mg/100 ml (Dose 10 ng/kg i.v. (lateral tail vein)), 7.92±0.15 mg/100 ml (Dose 30 ng/kg i.v. (lateral tail vein)) and 7.66±0.18 mg/100 ml (Dose 100 ng/kg i.v. (lateral tail vein)).
